Data from the supplement of paper PMC5579334.
± gives the standard deviation of the averaged measurements.

What was measured:
HS-PSS [1] = test: drug sensitivity score (DSS, CellTiter-Glo viability, 72 h) (DSS (dimensionless)); higher = more sensitive; extreme values may be limits of the assay
Procedure, shortened: (§1)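 MPNST cell lines and primary human Schwann cells (750–1000 cells per well) went into 384-well plates preprinted with each compound at five concentrations in 10-fold steps. Plates were incubated 72 h at 37 °C, 5% CO2. Viability was read as CellTiter-Glo ATP luminescence, scaled between vehicle and positive-control wells, with duplicates averaged where present. Percent inhibition is at the top concentration; drug sensitivity score and relative IC50 (censored at top concentration) come from four-parameter logistic fits.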

ST8814 [2] = test: as above
Procedure, shortened: as §1

[3] = test system: HSC1 (primary human Schwann cells); test: as above
Procedure, shortened: as §1

S462 [4] = test: as above
Procedure, shortened: as §1

STS26T [5] = test: as above
Procedure, shortened: as §1

[6] = test system: HSC2 (primary human Schwann cells); test: as above
Procedure, shortened: as §1

HS-Sch-2 [7] = test: as above
Procedure, shortened: as §1

YST-1 [8] = test: as above
Procedure, shortened: as §1

S1507-2 [9] = test: as above
Procedure, shortened: as §1

HS-PSS [10] = test: drug sensitivity score (DSS, CellTox-Green cytotoxicity, 72 h) (DSS (dimensionless)); higher = more cytotoxic; extreme values may be limits of the assay
Procedure, shortened: (§2)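 MPNST cell lines and primary human Schwann cells were incubated 72 h at 37 °C in 384-well plates holding five 10-fold compound dilutions. CellTox-Green was added before seeding at a final 1:1000 dilution and reported fluorescence from DNA released by disrupted cells. Signals were scaled to vehicle and positive-control wells, and cultures failing plate quality control were dropped. Drug sensitivity score and relative IC50 come from four-parameter logistic fits, with IC50 censored at the top concentration.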

ST8814 [11] = test: as above
Procedure, shortened: as §2

[12] = test system: HSC1 (primary human Schwann cells); test: as above
Procedure, shortened: as §2

STS26T [13] = test: as above
Procedure, shortened: as §2

[14] = test system: HSC2 (primary human Schwann cells); test: as above
Procedure, shortened: as §2

S1507-2 [15] = test: as above
Procedure, shortened: as §2

HS-PSS [16] = test: % inhibition of CellTiter-Glo viability at highest tested concentration (72 h), relative to DMSO and benzethonium chloride controls; higher = more inhibition
Procedure, shortened: as §1

ST8814 [17] = test: as above
Procedure, shortened: as §1

[18] = test system: HSC1 (primary human Schwann cells); test: as above
Procedure, shortened: as §1

S462 [19] = test: as above
Procedure, shortened: as §1

STS26T [20] = test: as above
Procedure, shortened: as §1

[21] = test system: HSC2 (primary human Schwann cells); test: as above
Procedure, shortened: as §1

HS-Sch-2 [22] = test: as above
Procedure, shortened: as §1

YST-1 [23] = test: as above
Procedure, shortened: as §1

S1507-2 [24] = test: as above
Procedure, shortened: as §1

Row | Compound | drug sensitivity score (HS-PSS [1]) | drug sensitivity score (ST8814 [2]) | drug sensitivity score [3] | drug sensitivity score (S462 [4]) | drug sensitivity score (STS26T [5]) | drug sensitivity score [6] | drug sensitivity score (HS-Sch-2 [7]) | drug sensitivity score (YST-1 [8]) | drug sensitivity score (S1507-2 [9]) | drug sensitivity score (HS-PSS [10]) | drug sensitivity score (ST8814 [11]) | drug sensitivity score [12] | drug sensitivity score (STS26T [13]) | drug sensitivity score [14] | drug sensitivity score (S1507-2 [15]) | % inhibition (HS-PSS [16]) [%] | % inhibition (ST8814 [17]) [%] | % inhibition [18] [%] | % inhibition (S462 [19]) [%] | % inhibition (STS26T [20]) [%] | % inhibition [21] [%] | % inhibition (HS-Sch-2 [22]) [%] | % inhibition (YST-1 [23]) [%] | % inhibition (S1507-2 [24]) [%]
1 | CO[C@H]1/C=C\C=C(/C)C(=O)NC2=CC(=O)C(NCCN(C)C)=C(C[C@@H](C)C[C@H](OC)[C@H](O)[C@@H](C)/C=C(\C)[C@@H]1OC(N)=O)C2=O [Alvespimycin] (max concentration tested 1000 nM) | 13.8 | 14.6 | 10 | 15.4 ± 0.78 | 12.5 | 9.75 | 15.8 | 15.4 | 12.3 ± 0.18 | 3.83 | 6.78 | 8.04 | 7.8 | 8.36 | 7.17 ± 1.2 | 85.3 | 98.8 | 98.1 | 99.51 ± 0.13 | 91.8 | 96.2 | 100 | 78.2 | 95.7 ± 2.9
2 | C[C@@H](Oc1cc(-c2cnn(C3CCNCC3)c2)cnc1N)c1c(Cl)ccc(F)c1Cl [Crizotinib] (max concentration tested 1000 nM) | 2.17 | 0 | 2.09 | 0.409 ± 0.58 | 0 | 1.21 | 0.41 | 0.85 | 0.701 ± 0.72 | 0 | 0 | 0 | 0 | 0 | 1.38 ± 2 | 48.6 | 7.26 | 21.3 | 13.3 ± 4.8 | 1.87 | 20.8 | 19.5 | 27.5 | 13.3 ± 2.3
3 | O=C(NC[C@H](O)CO)c1ccncc1Nc1ccc(I)cc1F [Pimasertib] (max concentration tested 10000 nM) | 2.94 | 10.8 | 7.67 | 11.9 ± 0.82 | 6.72 | 7.43 | 5.83 | 1.29 | 11.9 ± 1.4 | 0 | 6.32 | 0.153 | 0.309 | 0 | 5.35 ± 0.4 | 44.3 | 95.9 | 60.7 | 83.69 ± 0.41 | 42 | 65 | 55.4 | 34.4 | 81.8 ± 2.4
4 | O=C(/C=C/c1cccnc1)NCCCCC1CCN(C(=O)c2ccccc2)CC1 [Daporinad] (max concentration tested 1000 nM) | 25 | 24.1 | 18.8 | 28.6 ± 0.7 | 16.4 | 21.9 | 29.8 | 31.1 | 15.02 ± 0.15 | 0 | 0 | 0 | 9.24 | 0 | 0 | 90.9 | 93.2 | 70.9 | 100.3 ± 0.6 | 95.5 | 83.4 | 101 | 101 | 87.9 ± 6.3
5 | C[C@H]1C[C@@H]2[C@H]([C@@H](O)C[C@@]3(C)[C@H]2CC[C@]3(O)C(=O)CO)[C@@]2(C)C=CC(=O)C=C12 [Methylprednisolone] (max concentration tested 10000 nM) | 0 | 4.82 | 0 | 0 | 0 | 0 | 0.61 | 0.96 | 3.26 ± 4.4 | 0 | 0 | 0 | 0 | 0 | 0 | 3.22 | 22.4 | 7.99 | 4.77 ± 4.3 | 4.35 | 3.94 | 7.62 | 19.3 | 17.3 ± 7
6 | CN1CCN(c2ccc3nc(-c4c(N)c5c(F)cccc5[nH]c4=O)[nH]c3c2)CC1 [Dovitinib] (max concentration tested 10000 nM) | 0 | 0 | 1.65 | 0.655 ± 0.32 | 0.0001 | 0.382 | 0.84 | 0.32 | 3.54 ± 3.6 | 0 | 0 | 0 | 0 | 0 | 0 | -2.95 | -2.1 | 19.1 | 18.1 ± 0.51 | 10.4 | 16.2 | 22.3 | 17.6 | 21.7 ± 2.2
7 | C#Cc1cccc(Nc2ncnc3cc(OCCOC)c(OCCOC)cc23)c1 [Erlotinib] (max concentration tested 10000 nM) | 3.63 | 1.41 | 5.2 | 3.86 ± 0.29 | 2.29 | 5.39 | 5.08 | 5.25 | 1.85 ± 2 | 0 | 0 | 0 | 0 | 0 | 0 | 48.6 | 31.1 | 73.1 | 54.5 ± 2.7 | 33.2 | 74.7 | 55.9 | 56.7 | 26.3 ± 10
8 | COc1cccc2c1C(=O)c1c(O)c3c(c(O)c1C2=O)C[C@@](O)(C(=O)CO)C[C@@H]3O[C@H]1C[C@H](N)[C@H](O)[C@H](C)O1 [Doxorubicin] (max concentration tested 1000 nM) | 7.71 | 9.59 | 11.9 | 13.1 ± 0.35 | 12.7 | 11.2 | 10.2 | 13.9 | 10.6 ± 1.9 | 0.81 | 0 | 0.0904 | 0.331 | 18 | 0.0502 ± 0.071 | 96.1 | 96.1 | 99.1 | 98.561 ± 0.012 | 98.4 | 99.6 | 100 | 98.3 | 83.5 ± 6.7
9 | CC(C)C[C@@H](C(=O)N[C@H](C(=O)OC1CCCC1)c1ccccc1)[C@H](O)C(=O)NO [Tosedostat] (max concentration tested 10000 nM) | 0.92 | 2.24 | 9.82 | 8.03 ± 0.91 | 18.2 | 12.3 | 11 | 4.41 | 3.83 ± 0.36 | 0 | 2.29 | 0 | 28.6 | 0 | 10.4 ± 9.7 | 25 | 28 | 50.1 | 55 ± 3.6 | 74.9 | 54.6 | 64.9 | 28.4 | 26.2 ± 6.2
10 | C=CCc1cccc(/C=N/NC(=O)CN2CCN(Cc3ccccc3)CC2)c1O [PAC-1] (max concentration tested 10000 nM) | 6.09 | 3.36 | 6.29 | 3.7 ± 0.048 | 3.59 | 8.57 | 10.1 | 4.81 | 2.43 ± 0.66 | 2.32 | 0.202 | 0 | 0 | 0 | 0 | 84.3 | 57.7 | 75.5 | 73.6 ± 1.1 | 54.6 | 85.9 | 91.1 | 69.4 | 52.7 ± 7.1
11 | O=C(CCCCCCC(=O)Nc1ccc([C@H]2O[C@@H](CSc3nc(-c4ccccc4)c(-c4ccccc4)o3)C[C@@H](c3ccc(CO)cc3)O2)cc1)NO [Tubacin] (max concentration tested 10000 nM) | 4.53 | 3.74 | 3.73 | 3.54 ± 1.2 | 3.13 | 3.24 | 3.9 | 4.41 | 3.73 ± 1 | 0.31 | 2.33 | 0 | 3.25 | 0 | 0.0428 ± 0.06 | 48 | 64.2 | 70 | 64.9 ± 20 | 60.2 | 56.6 | 63.7 | 56.1 | 67.9 ± 7.1
12 | C[C@]1(O)C[C@@H](c2nc(-c3ccc4ccc(-c5ccccc5)nc4c3)c3c(N)nccn32)C1 [Linsitinib] (max concentration tested 10000 nM) | 0 | 0 | 5.89 | 5.33 ± 1.5 | 0.527 | 0 | 2.13 | 11.6 | 5.34 ± 1.7 | 0 | 0 | 0 | 0 | 0 | 0.228 ± 0.32 | -2.81 | 11.1 | 27 | 30.7 ± 0.84 | 13 | 11.7 | 25.6 | 82.4 | 24.6 ± 0.99
13 | CC(C)c1cc(-c2n[nH]c(=O)n2-c2ccc3c(ccn3C)c2)c(O)cc1O [Ganetespib] (max concentration tested 1000 nM) | 13.9 | 20.7 | 21.5 | 19.2 | 17.6 | 20.6 | 19.6 | 13.7 | 15.5 | 4.34 | 17.2 | 21.1 | 10.9 | 20.9 | 12.7 | 84.2 | 101 | 99.1 | 99.6 | 94.1 | 98.5 | 101 | 79.1 | 94.5
